Patent publication US12091425B2 (AMGEN INC., priority 2016, dated 2024)

Assays:
[1] = molecular target: T1, Mcl-1/Bim interaction, recombinant human Mcl-1 (171-327) (Homo sapiens, UniProt Q07820); experiment: Cell free Mcl-1: Bim Affinity Assay (Mcl-1 HTRF); assay type: binding
T1 construct: made in house
Summary of the method: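 Biotin-Bim(51-76) peptide, TR-FRET readout, overnight incubation; IC50 from duplicate competition curves, 4-parameter fit.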

[2] = system: OPM-2 human multiple myeloma cell line; experiment: Cell Viability Assay (OPM-2 10 FBS); assay type: cell-based; conditions: OPM-2 cells, CellTiter-Glo
Summary of the method: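 OPM-2 myeloma cells, 3000/well in medium with 10% FBS, exposed to serially diluted compounds for 16 h at 37° C./5% CO2. Viability read by CellTiter-Glo luminescence; IC50 from 4-parameter logistic fit.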

[3] = TR-FRET, 0.1 nM Mcl-1 (171-327), 0.05 nM biotin-Bim (51-76)
[4] = Homo sapiens, OPM-2, 16 h, 16 h
[5] = cell free Mcl-1:Bim TR-FRET, recombinant human Mcl-1 (171-327)

T1 sequence (Q07820 171-327): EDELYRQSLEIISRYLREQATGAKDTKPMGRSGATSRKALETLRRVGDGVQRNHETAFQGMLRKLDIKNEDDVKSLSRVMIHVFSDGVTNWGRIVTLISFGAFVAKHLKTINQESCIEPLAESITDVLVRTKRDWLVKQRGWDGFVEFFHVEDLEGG

| Structure (SMILES) | IC50 [1, 3] | IC50 ([2]; 16 h) | IC50 [2, 4] | IC50 [1, 5] | also measured |
| --- | --- | --- | --- | --- | --- |
| C[C@@]12C/C=C/[C@H](O)[C@@H]3CC[C@H]3CN3C[C@@]4(CCCc5cc(Cl)ccc54)COc4ccc(cc43)C(=O)NS(=O)(=O)[C@H]1CCC2 (single isomer, unassigned) [Example 131] | 1.83 nM | 1820 nM | – | – | – |
| COCCO[C@H]1/C=C\C[C@H](C)NS(=O)(=O)NC(=O)c2ccc3c(c2)N(C[C@@H]2CC[C@H]21)C[C@@]1(CCCc2cc(Cl)ccc21)CO3 (single isomer, unassigned) [Example 64] | 0.678 nM | – | 399 nM | – | – |
| CC[C@@H](O[C@H]1/C=C/CC[C@@H](C)S(=O)(=O)NC(=O)c2ccc3c(c2)N(C[C@@H]2CC[C@H]21)C[C@@]1(CCCc2cc(Cl)ccc21)CO3)C(=O)N(C)C (single isomer, unassigned) [Example 421] | 0.686 nM | 674 nM | – | – | – |
| O=C1NS(=O)(=O)CCC/C=C/[C@@H](OCCO)[C@@H]2CC[C@H]2CN2C[C@@]3(CCCc4cc(Cl)ccc43)COc3ccc1cc32 [Example 220, (1S,3′R,6′R,7′R,8′E)-6-chloro-7′-(2-hydroxyethoxy)-3,4-dihydro-2H,15′H-spiro[naphthalene-1,22′-[20]oxa[13]thia[1,14]diazatetracyclo[14.7.2.0^3,6.0^19,24]pentacosa [8,16,18,24]tetraen]-15′-one 13′,13′-dioxide] | 1.99 nM | – | 2660 nM | – | – |
| COCC(O)CC1CCC=CC(OC)C2CCC2CN2CC3(CCCc4cc(Cl)ccc43)COc3ccc(cc32)C(=O)NS1(=O)=O (single isomer, unassigned) [Example 658] | – | – | 259 nM | 0.285 nM | – |
| CC(C)OC(=O)CC1C(C)CC=CC(O)C2CCC2CN2CC3(CCCc4cc(Cl)ccc43)COc3ccc(cc32)C(=O)NS1(=O)=O (single isomer, unassigned) [Example 567] | – | 4510 nM | – | 3.69 nM | – |
| CC1CC=CC(O)C2CCC2CN2CC3(CCCc4cc(Cl)ccc43)COc3ccc(cc32)C(=O)NS(=O)(=O)C1 (single isomer, unassigned) [Example 231] | 45.2 nM | – | 23100 nM | – | – |
| COC(=O)CC1CCC=CC(O)C2CCC2CN2CC3(CCCc4cc(Cl)ccc43)COc3ccc(cc32)C(=O)NS1(=O)=O (single isomer, unassigned) [Example 619] | – | 401 nM | – | 0.187 nM | – |
| Cc1noc(C)c1CO[C@H]1/C=C/CC[C@@H](C)S(=O)(=O)NC(=O)c2ccc3c(c2)N(C[C@@H]2CC[C@H]21)C[C@@]1(CCCc2cc(Cl)ccc21)CO3 [Example 409, (1S,3′R,6′R,7′S,8′E,12′R)-6-chloro-7′-((3,5-dimethyl-4-isoxazolyl)methoxy)-12′-methyl-3,4-dihydro-2H,15′H-spiro[naphthalene-1,22′-[20]oxa[13]thia[1,14]diazatetracyclo[14.7.2.0^3,6.0^19,24]pentacosa [8,16,18,24]tetraen]-15′-one 13′,13′-dioxide] | 1.27 nM | – | 751 nM | – | – |
| C[C@@H]1CC/C=C/[C@H](OCc2cn(C)nn2)[C@@H]2CC[C@H]2CN2C[C@@]3(CCCc4cc(Cl)ccc43)COc3ccc(cc32)C(=O)NS1(=O)=O [Example 417, (1S,3′R,6′R,7′S,8′E,12′R)-6-chloro-12′-methyl-7′-((1-methyl-1H-1,2,3-triazol-4-yl)methoxy)-3,4-dihydro-2H,15′H-spiro[naphthalene-1,22′-[20]oxa[13]thia[1,14]diazatetracyclo[14.7.2.0^3,6.0^19,24]pentacosa [8,16,18,24]tetraen]-15′-one 13′,13′-dioxide] | 0.214 nM | – | 834 nM | – | – |
| O=C1NS(=O)(=O)N(CC2CCCO2)C/C=C/[C@H](O)[C@@H]2CC[C@H]2CN2C[C@@]3(CCCc4cc(Cl)ccc43)COc3ccc1cc32 (mixture of isomers) [Example 691] | – | – | 2330 nM | 1.81 nM | – |
| CO[C@H]1/C=C/[C@H](C)C[C@@H](C)S(=O)(=O)NC(=O)c2ccc3c(c2)N(C[C@@H]2CC[C@H]21)C[C@@]1(CCCc2cc(Cl)ccc21)CO3 [Example 1016, (1S,3′R,6′R,7′S,8′E,10′R,12′R)-6-chloro-7′-methoxy-10′,12′-dimethyl-3,4-dihydro-2H,15′H-spiro[naphthalene-1,22′-[20]oxa[13]thia[1,14]diazatetracyclo[14.7.2.0^3,6.0^19,24]pentacosa [8,16,18,24]tetraen]-15′-one 13′,13′-dioxide] | 0.483 nM | – | – | – | IC50 ([2]; Homo sapiens, OPM-2, 16 h, 16 h incubation): 291 nM |
| CC[C@@H]1[C@@H](C)C/C=C/[C@H](OCCOC)[C@@H]2CC[C@H]2CN2C[C@@]3(CCCc4cc(Cl)ccc43)COc3ccc(cc32)C(=O)NS1(=O)=O [Example 740, (1S,3′R,6′R,7′S,8′E,11′S,12′R)-6-chloro-12′-ethyl-7′-(2-methoxyethoxy)-11′-methyl-3,4-dihydro-2H,15′H-spiro[naphthalene-1,22′-[20]oxa[13]thia[1,14]diazatetracyclo[14.7.2.0^3,6.0^19,24]pentacosa [8,16,18,24]tetraen]-15′-one-13′, 13′-dioxide] | – | – | 170 nM | 0.543 nM | – |
| CCC1C(C)C(C)C=CC(O)C2CCC2CN2CC3(CCCc4cc(Cl)ccc43)COc3ccc(cc32)C(=O)NS1(=O)=O (single isomer, unassigned) [Example 1055] | 0.394 nM | – | – | – | IC50 ([2]; 16 h incubation): 257 nM |
| Cc1cc(CO[C@H]2/C=C/CC[C@@H](C)S(=O)(=O)NC(=O)c3ccc4c(c3)N(C[C@@H]3CC[C@H]32)C[C@@]2(CCCc3cc(Cl)ccc32)CO4)no1 [Example 411, (1S,3′R,6′R,7′S,8′E,12′R)-6-chloro-12′-methyl-7′-((5-methyl-3-isoxazolyl)methoxy)-3,4-dihydro-2H,15′H-spiro[naphthalene-1,22′-[20]oxa[13]thia[1,14]diazatetracyclo[14.7.2.0^3,6.0^19,24]pentacosa [8,16,18,24]tetraen]-15′-one 13′,13′-dioxide] | 1.29 nM | – | 2410 nM | – | – |
| CO[C@H]1/C=C/C(CO)C(C)CS(=O)(=O)NC(=O)c2ccc3c(c2)N(C[C@@H]2CC[C@H]21)C[C@@]1(CCCc2cc(Cl)ccc21)CO3 (single isomer, unassigned) [Example 126] | 0.448 nM | 496 nM | – | – | – |
| Cn1cnc(CO[C@H]2/C=C/C[C@H]3CC[C@@H]3S(=O)(=O)NC(=O)c3ccc4c(c3)N(C[C@@H]3CC[C@H]32)C[C@@]2(CCCc3cc(Cl)ccc32)CO4)n1 [Example 94, (1S,3′R,6′R,7′S,8′E,11′R,14′S)-6-chloro-7′-((1-methyl-1H-1,2,4-triazol-3-yl)methoxy)-3,4-dihydro-2H,17′H-spiro[naphthalene-1,24′-[22]oxa[15]thia[1,16]diazapentacyclo[16.7.2.0^3,6.0^11,14.0^21,26]heptacosa[8,18,20,26]tetraen]-17′-one 15′,15′-dioxide] | 0.467 nM | – | 432 nM | – | – |
| C[C@@H]1[C@@H](C)C/C=C/C(=O)[C@@H]2CC[C@H]2CN2C[C@@]3(CCCc4cc(Cl)ccc43)COc3ccc(cc32)C(=O)NS1(=O)=O [Example 349, (1S,3′R,6′R,8′E,11′S,12′R)-6-chloro-11′,12′-dimethyl-3,4-dihydro-2H,7′H,15′H-spiro[naphthalene-1,22′-[20]oxa[13]thia[1,14]diazatetracyclo[14.7.2.0^3,6.0^19,24]pentacosa [8,16,18,24]tetraene]-7′,15′-dione 13′,13′-dioxide] | 3.83 nM | – | 1050 nM | – | – |
| COCCO[C@H]1/C=C/C[C@H](C)[C@H](c2ccccc2)S(=O)(=O)NC(=O)c2ccc3c(c2)N(C[C@@H]2CC[C@H]21)C[C@@]1(CCCc2cc(Cl)ccc21)CO3 (single isomer, unassigned) [Example 671] | – | 5650 nM | – | 19.8 nM | – |
| O=C1NS(=O)(=O)CCC/C(Br)=C\[C@@H](O)[C@@H]2CC[C@H]2CN2C[C@@]3(CCCc4cc(Cl)ccc43)COc3ccc1cc32 (single isomer, unassigned) [Example 236] | 6.42 nM | 13700 nM | – | – | – |
| CC[C@@H]1C/C=C/[C@H](OCC(=O)O)[C@@H]2CC[C@H]2CN2C[C@@]3(CCCc4cc(Cl)ccc43)COc3ccc(cc32)C(=O)NS1(=O)=O [Example 764, (((1S,3′R,6′R,7′S,8′E,11′R)-6-chloro-11′-ethyl-12′,12′-dioxido-14′-oxo-3,4-dihydro-2H-spiro[naphthalene-1,21′-[19]oxa[12]thia[1,13]diazatetracyclo[13.7.2.0^3,6.0^18,23]tetracosa[8,15,17,23]tetraen]-7′-yl)oxy)acetic Acid] | – | – | 11200 nM | 0.113 nM | – |
| O=C1NS(=O)(=O)[C@H](c2ccccn2)CC/C=C/[C@H](O)[C@@H]2CC[C@H]2CN2C[C@@]3(CCCc4cc(Cl)ccc43)COc3ccc1cc32 (single isomer, unassigned) [Example 693] | – | 742 nM | – | 0.235 nM | – |
| COCCOCCN1[C@@H](C)C/C=C/[C@H](O)[C@@H]2CC[C@H]2CN2C[C@@]3(CCCc4cc(Cl)ccc43)COc3ccc(cc32)C(=O)NS1(=O)=O [Example 25, (1S,3′R,6′R,7′S,8′E,11′S)-6-chloro-7′-hydroxy-12′-(2-(2-methoxyethoxy)ethyl)-11′-methyl-3,4-dihydro-2H,15′H-spiro[naphthalene-1,22′-[20]oxa[13]thia[1,12,14]triazatetracyclo[14.7.2.0^3,6.0^19,24]pentacosa[8,16,18,24]tetraen]-15′-one 13,13′-dioxide] | 0.246 nM | – | 166 nM | – | – |
| C[C@H]1C/C=C\[C@H](O)[C@@H]2CC[C@H]2CN2C[C@@]3(CCCc4cc(Cl)ccc43)COc3ccc(cc32)C(=O)NS(=O)(=O)N1C[C@H]1CCCO1 (single isomer, unassigned) [Example 54] | 0.781 nM | – | 774 nM | – | – |
